Legend:
[1] = biological target: T1, recombinant VEGF protein standard (Homo sapiens, UniProt P15692); assay: interference with the VEGF ELISA using VEGF standard
T1 construct: purchased R & D Systems
Procedure: The effects of compounds 1 and 2 on hypoxic induction of secreted VEGF protein are examined in T47D cells. Exponentially grown T47D cells are plated at the density of 30,000 cells/well into 96-well plates. Compound treatment and hypoxic exposure are the same as described. Following incubation, the concentration of secreted VEGF protein in the conditioned media is determined by ELISA (R & D Systems) and the data normalized by the number of viable cells. Results shown in FIG. 4 are averages from a representative experiment performed in quadruplicate, the bars represent standard error. An asterisk (*) indicates the level of significance (p<0.01) relative to the hypoxic control, two asterisks (**) (p<0.0001), and no asterisk indicates no statistical difference (ANOVA and Fisher's PLSD post hoc test).
As discussed earlier, one important HIF-1 target gene is VEGF, a key factor for tumor angiogenesis. Compounds that can inhibit both HIF-1 activation and the production of secreted VEGF protein represent potential efficacious chemotherapeutic agents that inhibit both tumor survival and hypoxia induced angiogenesis. […] Following incubation, the concentration of secreted VEGF protein in the conditioned media is determined by ELISA (R & D Systems) and the data normalized by the number of viable cells. […] The level of significance (p<0.01) is determined by ANOVA and Fisher's PLSD post hoc test. […]

HL-60(TB) = assay: NCI in vitro cell line screen (SRB), Leukemia HL-60(TB); format: cell-based
Procedure: (§1) For exemplary purposes, an embodiment of the present invention was tested for activity with respect to certain cancer cell lines. The following Tables show results from in vitro 60-cell line antitumor testing from the US National Cancer Institute Developmental Therapeutics Program (NCI-DTP) on compound 2. The testing was in connection with the NCI's In Vitro Cell Line Screening Project (IVCLSP). Detailed information regarding the experiments and their interpretation is available from the NCI.

OVCAR-3 = assay: NCI in vitro cell line screen (SRB), Ovarian Cancer OVCAR-3; format: cell-based
Procedure: as §1

secreted VEGF protein = assay: induction of secreted VEGF protein by 1,10-phenanthroline in T47D cells (ELISA); format: cell-based, human; details: T47D, 1,10-phenanthroline 10 μM, 16 hr
Procedure: Cell plating and compound treatment is similar to those described earlier for hypoxic conditions. […] At the end of the incubation, the concentration of secreted VEGF protein in the conditioned media is determined by ELISA and the data normalized by the number of viable cells.

IGROV1 = assay: NCI in vitro cell line screen (SRB), Ovarian Cancer IGROV1; format: cell-based
Procedure: as §1

SK-MEL-2 = assay: NCI in vitro cell line screen (SRB), Melanoma SK-MEL-2; format: cell-based
Procedure: as §1

SF-539 = assay: NCI in vitro cell line screen (SRB), CNS Cancer SF-539; format: cell-based
Procedure: as §1

NCI-H460 = assay: NCI in vitro cell line screen (SRB), Non-Small Cell Lung Cancer NCI-H460; format: cell-based
Procedure: as §1

TK-10 = assay: NCI in vitro cell line screen (SRB), Renal Cancer TK-10; format: cell-based
Procedure: as §1

[2] = Homo sapiens, read-out: LC50 (the source's name)

T1 sequence (P15692 27-191 isoform P15692-4): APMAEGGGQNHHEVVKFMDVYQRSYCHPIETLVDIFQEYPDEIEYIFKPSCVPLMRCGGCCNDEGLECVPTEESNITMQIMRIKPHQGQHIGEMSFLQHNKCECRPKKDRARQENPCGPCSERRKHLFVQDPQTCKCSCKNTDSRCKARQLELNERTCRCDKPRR

COc1ccc([C@@H](O)[C@@H](C)Oc2ccc([C@H]3O[C@H](c4ccc(O[C@H](C)[C@H](O)c5ccc6c(c5)OCO6)c(OC)c4)[C@H](C)[C@H]3C)cc2OC)cc1OC [Compound 2, manassantin B]
interference with the ELISA assay [1]: neither compound interferes | TGI (HL-60(TB)): >1.00E−4 Molar | GI50 (HL-60(TB); Homo sapiens): > 100 µM | CC50 (HL-60(TB); [2]): > 100 µM | Mean Optical Densities (HL-60(TB); Log10 Concentration −4.0 Molar): 0.426 | Percent Growth (HL-60(TB); Log10 Concentration −4.0 Molar): 58% | Mean Optical Densities (HL-60(TB); Log10 Concentration −5.0 Molar): 0.491 | Percent Growth (HL-60(TB); Log10 Concentration −5.0 Molar): 76% | Mean Optical Densities (HL-60(TB); Log10 Concentration −6.0 Molar): 0.555 | Percent Growth (HL-60(TB); Log10 Concentration −6.0 Molar): 93% | Mean Optical Densities (HL-60(TB); Log10 Concentration −7.0 Molar): 0.543 | Percent Growth (HL-60(TB); Log10 Concentration −7.0 Molar): 90% | Mean Optical Densities (HL-60(TB); Log10 Concentration −8.0 Molar): 0.469 | Percent Growth (HL-60(TB); Log10 Concentration −8.0 Molar): 70% | TGI (OVCAR-3): 4.32E−6 Molar | GI50 (OVCAR-3; Homo sapiens): 0.627 µM | CC50 (OVCAR-3; [2]): > 100 µM | Mean Optical Densities (OVCAR-3; Log10 Concentration −4.0 Molar): 0.367 | Percent Growth (OVCAR-3; Log10 Concentration −4.0 Molar): −36% | Mean Optical Densities (OVCAR-3; Log10 Concentration −5.0 Molar): 0.465 | Percent Growth (OVCAR-3; Log10 Concentration −5.0 Molar): −19% | Mean Optical Densities (OVCAR-3; Log10 Concentration −6.0 Molar): 0.616 | Percent Growth (OVCAR-3; Log10 Concentration −6.0 Molar): 33% | Mean Optical Densities (OVCAR-3; Log10 Concentration −7.0 Molar): 0.722 | Percent Growth (OVCAR-3; Log10 Concentration −7.0 Molar): 117% | Mean Optical Densities (OVCAR-3; Log10 Concentration −8.0 Molar): 0.679 | Percent Growth (OVCAR-3; Log10 Concentration −8.0 Molar): 83% | effect on the induction of secreted VEGF protein by 1,10-phenanthroline (secreted VEGF protein): does not effect | TGI (IGROV1): >1.00E−4 Molar | GI50 (IGROV1; Homo sapiens, IGROV-1): 14 µM | CC50 (IGROV1; Homo sapiens, IGROV-1, read-out: LC50 (the source's name)): > 100 µM | Mean Optical Densities (IGROV1; Log10 Concentration −4.0 Molar): 0.336 | Percent Growth (IGROV1; Log10 Concentration −4.0 Molar): 13% | Mean Optical Densities (IGROV1; Log10 Concentration −5.0 Molar): 0.500 | Percent Growth (IGROV1; Log10 Concentration −5.0 Molar): 56% | Mean Optical Densities (IGROV1; Log10 Concentration −6.0 Molar): 0.674 | Percent Growth (IGROV1; Log10 Concentration −6.0 Molar): 102% | Mean Optical Densities (IGROV1; Log10 Concentration −7.0 Molar): 0.674 | Percent Growth (IGROV1; Log10 Concentration −7.0 Molar): 102% | Mean Optical Densities (IGROV1; Log10 Concentration −8.0 Molar): 0.721 | Percent Growth (IGROV1; Log10 Concentration −8.0 Molar): 114% | TGI (SK-MEL-2): >1.00E−4 Molar | GI50 (SK-MEL-2; Homo sapiens): > 100 µM | CC50 (SK-MEL-2; [2]): > 100 µM | Mean Optical Densities (SK-MEL-2; Log10 Concentration −4.0 Molar): 0.764 | Percent Growth (SK-MEL-2; Log10 Concentration −4.0 Molar): 54% | Mean Optical Densities (SK-MEL-2; Log10 Concentration −5.0 Molar): 0.928 | Percent Growth (SK-MEL-2; Log10 Concentration −5.0 Molar): 78% | Mean Optical Densities (SK-MEL-2; Log10 Concentration −6.0 Molar): 1.066 | Percent Growth (SK-MEL-2; Log10 Concentration −6.0 Molar): 98% | Mean Optical Densities (SK-MEL-2; Log10 Concentration −7.0 Molar): 0.900 | Percent Growth (SK-MEL-2; Log10 Concentration −7.0 Molar): 74% | Mean Optical Densities (SK-MEL-2; Log10 Concentration −8.0 Molar): 1.020 | Percent Growth (SK-MEL-2; Log10 Concentration −8.0 Molar): 92% | TGI (SF-539): >1.00E−4 Molar | GI50 (SF-539; Homo sapiens): 6.28 µM | CC50 (SF-539; [2]): > 100 µM | Mean Optical Densities (SF-539; Log10 Concentration −4.0 Molar): 0.535 | Percent Growth (SF-539; Log10 Concentration −4.0 Molar): 21% | Mean Optical Densities (SF-539; Log10 Concentration −5.0 Molar): 0.629 | Percent Growth (SF-539; Log10 Concentration −5.0 Molar): 41% | Mean Optical Densities (SF-539; Log10 Concentration −6.0 Molar): 0.848 | Percent Growth (SF-539; Log10 Concentration −6.0 Molar): 87% | Mean Optical Densities (SF-539; Log10 Concentration −7.0 Molar): 0.914 | Percent Growth (SF-539; Log10 Concentration −7.0 Molar): 101% | Mean Optical Densities (SF-539; Log10 Concentration −8.0 Molar): 0.880 | Percent Growth (SF-539; Log10 Concentration −8.0 Molar): 94% | TGI (NCI-H460): >1.00E−4 Molar | GI50 (NCI-H460; Homo sapiens): 2.12 µM | LC50 (concentration killing 50% of starting cells) (NCI-H460; Homo sapiens): > 100 µM | Mean Optical Densities (NCI-H460; Log10 Concentration −4.0 Molar): 0.285 | Percent Growth (NCI-H460; Log10 Concentration −4.0 Molar): 11% | Mean Optical Densities (NCI-H460; Log10 Concentration −5.0 Molar): 0.492 | Percent Growth (NCI-H460; Log10 Concentration −5.0 Molar): 28% | Mean Optical Densities (NCI-H460; Log10 Concentration −6.0 Molar): 0.895 | Percent Growth (NCI-H460; Log10 Concentration −6.0 Molar): 61% | Mean Optical Densities (NCI-H460; Log10 Concentration −7.0 Molar): 1.030 | Percent Growth (NCI-H460; Log10 Concentration −7.0 Molar): 72% | Mean Optical Densities (NCI-H460; Log10 Concentration −8.0 Molar): 1.011 | Percent Growth (NCI-H460; Log10 Concentration −8.0 Molar): 70% | TGI (TK-10): >1.00E−4 Molar | GI50 (TK-10; Homo sapiens): 4.15 µM | CC50 (TK-10; [2]): > 100 µM | Mean Optical Densities (TK-10; Log10 Concentration −4.0 Molar): 1.117 | Percent Growth (TK-10; Log10 Concentration −4.0 Molar): 16% | Mean Optical Densities (TK-10; Log10 Concentration −5.0 Molar): 1.163 | Percent Growth (TK-10; Log10 Concentration −5.0 Molar): 22% | Mean Optical Densities (TK-10; Log10 Concentration −6.0 Molar): 1.674 | Percent Growth (TK-10; Log10 Concentration −6.0 Molar): 95% | Mean Optical Densities (TK-10; Log10 Concentration −7.0 Molar): 1.684 | Percent Growth (TK-10; Log10 Concentration −7.0 Molar): 97% | Mean Optical Densities (TK-10; Log10 Concentration −8.0 Molar): 1.707 | Percent Growth (TK-10; Log10 Concentration −8.0 Molar): 100%

Reference: patent US20090137664A1, “SAURURUS CERNUUS COMPOUNDS THAT INHIBIT CELLULAR RESPONSES TO HYPOXIA” (priority 2003, published 2009)
